Data as given in PubChem BioAssay (NCI).
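Test compounds were applied to cells in 96-well plates for 48 hours at 5 doses. TGI marks complete inhibition of growth.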

Key:
Assay in all cases: inhibition of tumour cell growth, NCI panel, 48 h
786-0 renal = system: 786-0 renal
A498 renal = system: A498 renal
A549 NSCLC = system: A549 NSCLC
ACHN renal = system: ACHN renal
BT-549 breast = system: BT-549 breast
CAKI-1 renal = system: CAKI-1 renal
CCRF-CEM leukemia = system: CCRF-CEM leukemia
COLO 205 colon = system: COLO 205 colon
DU-145 prostate = system: DU-145 prostate
EKVX NSCLC = system: EKVX NSCLC
HCC-2998 colon = system: HCC-2998 colon
HCT-116 colon = system: HCT-116 colon
HCT-15 colon = system: HCT-15 colon
HL-60(TB) leukemia = system: HL-60(TB) leukemia
HOP-62 NSCLC = system: HOP-62 NSCLC
HOP-92 NSCLC = system: HOP-92 NSCLC
HS 578T breast = system: HS 578T breast
HT29 colon = system: HT29 colon
IGROV1 ovarian = system: IGROV1 ovarian
K-562 leukemia = system: K-562 leukemia
KM12 colon = system: KM12 colon
LOX IMVI melanoma = system: LOX IMVI melanoma
M14 melanoma = system: M14 melanoma
MCF7 breast = system: MCF7 breast
MDA-MB-231 breast = system: MDA-MB-231 breast
MDA-MB-435 = system: MDA-MB-435
MDA-N = system: MDA-N
MOLT-4 leukemia = system: MOLT-4 leukemia
NCI-H226 lung = system: NCI-H226 lung
NCI-H23 lung = system: NCI-H23 lung
NCI-H460 lung = system: NCI-H460 lung
NCI-H522 lung = system: NCI-H522 lung
NCI/ADR-RES ovarian = system: NCI/ADR-RES ovarian
OVCAR-3 ovarian = system: OVCAR-3 ovarian
OVCAR-4 ovarian = system: OVCAR-4 ovarian
OVCAR-5 ovarian = system: OVCAR-5 ovarian
OVCAR-8 ovarian = system: OVCAR-8 ovarian
PC-3 prostate = system: PC-3 prostate
RPMI-8226 leukemia = system: RPMI-8226 leukemia
RXF 393 renal = system: RXF 393 renal
SF-268 CNS = system: SF-268 CNS
SF-295 CNS = system: SF-295 CNS
SF-539 CNS = system: SF-539 CNS
SK-MEL-2 melanoma = system: SK-MEL-2 melanoma
SK-MEL-28 melanoma = system: SK-MEL-28 melanoma
SK-MEL-5 melanoma = system: SK-MEL-5 melanoma
SK-OV-3 ovarian = system: SK-OV-3 ovarian
SN12C renal = system: SN12C renal
SNB-19 CNS = system: SNB-19 CNS
SNB-75 CNS = system: SNB-75 CNS
SR leukemia = system: SR leukemia
SW-620 colon = system: SW-620 colon
T-47D breast = system: T-47D breast
TK-10 renal = system: TK-10 renal
U251 CNS = system: U251 CNS
UACC-257 melanoma = system: UACC-257 melanoma
UACC-62 melanoma = system: UACC-62 melanoma
UO-31 renal = system: UO-31 renal

Measured: TGI

CC(=O)N(C)C(C(=O)N1CC(C)CC1C(=O)N(C)C1C(=O)NC(CC(C)C)C(=O)N2CC(C)CC2C(=O)NC(CC(C)C)C(=O)N(C)C(C(C)C)C(=O)N2CCCC2C(=O)N(C)C(CC(C)C)C(=O)NCC(=O)OC1C)C(C)C (centres undefined)
> 100 µM: all assays above

C#CCCOC(=O)CC1=C(C)/C(=C/c2ccc(S(C)=O)cc2)c2ccc(F)cc21 (centres undefined)
33.6 µM: UO-31 renal
27.1 µM: HCT-15 colon
42.8 µM: OVCAR-8 ovarian
30.5 µM: BT-549 breast | SF-539 CNS | SK-MEL-2 melanoma
30.4 µM: A498 renal
> 100 µM: HOP-62 NSCLC | OVCAR-5 ovarian
24.7 µM: SK-MEL-5 melanoma
32.9 µM: COLO 205 colon
20.7 µM: HL-60(TB) leukemia
35 µM: CCRF-CEM leukemia
50 µM: SF-268 CNS
29.6 µM: SNB-19 CNS
84.3 µM: SK-OV-3 ovarian
27.3 µM: KM12 colon
44.8 µM: SNB-75 CNS
44.3 µM: ACHN renal
26.1 µM: HOP-92 NSCLC
37.8 µM: MCF7 breast
32.4 µM: RPMI-8226 leukemia
33.8 µM: OVCAR-3 ovarian
84.7 µM: RXF 393 renal
44.7 µM: 786-0 renal
40.4 µM: HS 578T breast
29.4 µM: SF-295 CNS | U251 CNS
26 µM: MDA-MB-231 breast
53.7 µM: T-47D breast
35.4 µM: NCI-H460 lung
47 µM: NCI-H522 lung
35.3 µM: K-562 leukemia
21 µM: MDA-N
36 µM: NCI/ADR-RES ovarian
32.3 µM: HCT-116 colon
22.3 µM: HCC-2998 colon
43 µM: OVCAR-4 ovarian
31.4 µM: DU-145 prostate
44.1 µM: MOLT-4 leukemia
71.9 µM: EKVX NSCLC
83.3 µM: TK-10 renal
65.4 µM: CAKI-1 renal
29.9 µM: SW-620 colon
68.9 µM: NCI-H23 lung
17.4 µM: MDA-MB-435
35.6 µM: SN12C renal
33.1 µM: LOX IMVI melanoma | M14 melanoma
22.1 µM: SR leukemia
83.1 µM: IGROV1 ovarian
43.3 µM: NCI-H226 lung
29.7 µM: UACC-257 melanoma
28.7 µM: PC-3 prostate
27.4 µM: UACC-62 melanoma

O=C(O)Cc1cc(F)ccc1C(=O)O
75.9 µM: IGROV1 ovarian
not listed: NCI-H226 lung | OVCAR-4 ovarian
> 100 µM: all other assays above
